Test results: the NIST ThermoML archive (doi:10.1016/j.jct.2015.06.009)

Assay: xn = mol fraction of the nth substance listed
Conditions: 101 kPa, Liquid; for speed of sound: Frequency=3 MHz, Sing-around technique in a fixed-path interferometer; for mass density: Vibrating tube method

COC(C)(C)C [2-methoxy-2-methylpropane] + CCCCO
Conditions | mass density, 298.15 K [kg/m3] | mass density, 308.15 K [kg/m3] | mass density, 318.15 K [kg/m3] | mass density, 328.15 K [kg/m3] | speed of sound, 298.15 K [m/s] | speed of sound, 308.15 K [m/s] | speed of sound, 318.15 K [m/s] | speed of sound, 328.15 K [m/s]
x1 = 0.03132 | 803.61 | 795.86 | 788.07 | 780.19 | 1233.9 | 1200 | 1166.3 | 1132.8
x1 = 0.06569 | 801.27 | 793.42 | 785.54 | 777.56 | 1227 | 1192.7 | 1158.4 | 1124.4
x1 = 0.1315 | 796.77 | 788.76 | 780.66 | 772.49 | 1213.6 | 1178.4 | 1143 | 1108.2
x1 = 0.193 | 792.46 | 784.25 | 775.99 | 767.64 | 1200.7 | 1164.5 | 1128.5 | 1092.7
x1 = 0.2647 | 787.54 | 779.11 | 770.65 | 762.09 | 1185.7 | 1148.6 | 1111.7 | 1075
x1 = 0.3401 | 782.26 | 773.61 | 764.93 | 756.13 | 1170.3 | 1131.9 | 1094 | 1056.4
x1 = 0.3916 | 778.65 | 769.83 | 761.01 | 752.07 | 1159.3 | 1120.5 | 1082 | 1043.8
x1 = 0.4652 | 773.54 | 764.48 | 755.43 | 746.28 | 1144.3 | 1104.6 | 1065.2 | 1026.3
x1 = 0.5451 | 768.04 | 758.63 | 749.33 | 739.91 | 1128.3 | 1087.4 | 1047.2 | 1007
x1 = 0.6001 | 764.05 | 754.64 | 745.19 | 735.66 | 1117.3 | 1076.1 | 1034.9 | 995.48
x1 = 0.6708 | 759.06 | 749.44 | 739.77 | 729.95 | 1103.5 | 1061.5 | 1019.5 | 978.48
x1 = 0.7347 | 754.56 | 744.74 | 734.85 | 724.9 | 1091.3 | 1048.4 | 1005.7 | 963.43
x1 = 0.7953 | 750.27 | 740.28 | 730.2 | – | 1079.5 | 1036 | 992.74 | –
x1 = 0.8755 | 744.44 | 734.2 | 723.89 | 713.5 | 1063.6 | 1019 | 974.75 | 932.29
x1 = 0.9367 | 739.95 | 729.44 | 719.05 | 708.44 | 1050.6 | 1005.4 | 960.39 | 917.28
x1 = 1 | 735.22 | 724.64 | 714.01 | 703.38 | 1036.4 | 990.57 | 944.94 | –
